According to patent publication US20170198027A1 (priority 2012, published 2017):
“Also recorded” adds a separate entry of the source. Read-outs that look alike come from different tables or passages of the source.

Tested on: New Zealand white rabbit fed with high fat diet
Conditions: for atherosclerosis Grade: individual animals, listed as APOAI
[1] = low dose group vs vehicle control
[2] = medium group vs vehicle control

Protocol: The treatment groups were given APOAJ via auricular vein once a week Vehicle controls received normal saline via auricular vein once a week. […] The body weight of animal was determined every week and whole blood was drawn every three weeks. The study duration was 19 weeks. At the end of study, all animals were sacrificed. […] Male New Zealand white rabbits were used in this study. […] Blood samples were taken 12 hour after fasting before study to determine the blood lipid parameters. […] Ten to 14 rabbits were in one group. […] First dose was given 1 week before high fat diet. […] 5.2 blood lipid parameters: whole blood was drawn every three weeks. Animals were subject to 12 hour fast before taking blood. […] The upper layer of serum was then separated and examined for total cholesterol (TC), total triglyceride (TG), low density lipoprotein cholesterin (LDL-C), and high density lipoprotein cholesterin (HDL-C). Test reagents were purchased from Shanghai A: The atherosclerosis of aorta (plaque area lj) B: Liver index C: Aorta, liver, heart, arteria carotis, kidney All animals were anesthetized by 20 of ethyl carbamate and then sacrificed with air injection. Abdomen cavity was opened. Whole blood was taken from heart. Heart was harvested along with 7 em of aorta. Then other organs like liver, kidney and arteria carotis were harvested. […] Pictures were taken then. Aorta was cut from aortic arch, opened longitudinally and taken picture. […] One piece of this sample was fixed in fomlalin for further pathological analysis. The weight of liver was determined immediately. Two pieces of specimen were cut from hepatic lobe. One was kept in cryo-preservation tube for lipid analysis and another one was fixed in formalin for further pathological analysis. Animals were fast for 12 hours before taking blood samples via auricular vein. […] Test reagents were purchased from Shanghai Rong Sheng Bio-pharmaceutical Co. Ltd. The aorta was dissected and opened for 7.5 em from aortic arch longitudinally. Pictures were taken and atherosclerosis changing was analyzed.

## human Apoiipoprotein AI, injection [APOA1]
High dose
  Lipid content in aorta: HDL-C: 0.111
  Lipid content in aorta: LDL-C: 0.318
  Lipid content in aorta: TC: 0.29
  Lipid content in aorta: TG: 0.402
  Lipid content in liver: HDL-C: 0.825 ± 0.129
  Lipid content in liver: LDL-C: 2.302 ± 0.054
  Lipid content in liver: TC: 2.841 ± 0.298
  Lipid content in liver: TG: 1.3 ± 0.171
High dose (n = 8)
  Liver index: 4.257 ± 0.482%
  Liver weight: 151.69 ± 18.49 g
Low dose
  Lipid content in aorta: HDL-C: 0.092
  Lipid content in aorta: LDL-C: 0.254
  Lipid content in aorta: TC: 0.28
  Lipid content in aorta: TG: 0.337
  Lipid content in liver: HDL-C: 0.803 ± 0.236
  Lipid content in liver: TC: 2.95 ± 0.809
  Lipid content in liver: TG: 1.369 ± 0.251
Low dose (n = 12)
  Liver index: 3.886 ± 0.489%
  Liver weight: 128.096 ± 20.43 g
Medium dose (n = 9)
  Liver index: 3.708−.−i−:( ).391%
  Liver weight: 112.006− −+ .−25.79 g
Middle dose
  Lipid content in aorta: HDL-C: 0.128
  Lipid content in aorta: LDL-C: 0.307
  Lipid content in aorta: TC: 0.332
  Lipid content in aorta: TG: 0.388
  Lipid content in liver: HDL-C: 0.815 ± 0.249
  Lipid content in liver: LDL-C: 1.407 ± 0.418
  Lipid content in liver: TC: 2,214 ± 0.515
  Lipid content in liver: TG: 1.081 ± 0.31
Given along with high fat diet
  blood lipid parameters: no significant decrease in blood lipid parameters
High dose group vs vehicle control
  TG, lipid content in liver: significantly lower
High dose group
  atherosclerosis Grade: IV (Grade IV was greater than 75%)
Low dose group
  pathological change of aorta: no significant improvement
  atherosclerosis Grade: I (grade I was less than 25 ?-)); also recorded: IV (Grade IV was greater than 75%)
[1]
  TG, lipid content in liver: significantly lower
  cellular swelling in liver: same
  fat degeneration in liver: better
Medium dose group
  atherosclerosis Grade: I (grade I was less than 25 ?-))
Medium group (40 mg/kg) vs vehicle control
  area of atherosclerosis: significant less
[2]
  LDL-C, lipid content in liver: significantly lower
  TC, lipid content in liver: significantly lower
  TG, lipid content in liver: significantly lower
  cellular swelling and fat degeneration in liver: better
  pathological change of aorta (endothelium swelling, smooth muscle migrating, foam cell formation): better
rabbit, in vivo
  Body weight Wk 19: 3.19-.-i-:( ).278 kg
  atherosclerosis change in Arteria carotis: no atherosclerosis change found
  calcification, pathological examination: no calcification found
  kidney Pathological change: -
  pathological change in heart and kidney: no pathological change found
serum, High dose (n = 8)
  high density lipoprotein cholesterin (HDL-C) Wk 19: 4.993 · −+ :2.018 mmol/L
  ligh density lipoprotein cholesterin (LDL-C) Wk 0: 0.92 ± 0.324 mmol/L
  ligh density lipoprotein cholesterin (LDL-C) Wk 19: 14.1 ± 4.188 mmol/L
  total cholesterol (TC) Wk 0: 1.59 .t-J}.48 mmol/L
  total cholesterol (TC) Wk 19: 12.49 -t-2.81 mmol/L
serum, Low dose (n = 12)
  high density lipoprotein cholesterin (HDL-C) Wk 0: 0.705 ± 0.246 mmol/L
  high density lipoprotein cholesterin (HDL-C) Wk 19: 3.744 ± 2.14 mmol/L
  ligh density lipoprotein cholesterin (LDL-C) Wk 0: 0.826 ± 0.279 mmol/L
  ligh density lipoprotein cholesterin (LDL-C) Wk 19: 7.298 ± 4.60 mmol/L
  total cholesterol (TC) Wk 0: 1.06.-i-:0.27 mmol/L
  total cholesterol (TC) Wk 19: 9.07-.+:4.92 mmol/L
  total triglyceride (TG) Wk 0: 0.786 ± 0.229 mmol/L
  total triglyceride (TG) Wk 19: 1.267 ± 0.772 mmol/L
serum, Medium dose (n = 9)
  high density lipoprotein cholesterin (HDL-C) Wk 0: 0.67 ± 0.207 mmol/L
  high density lipoprotein cholesterin (HDL-C) Wk 19: 4.343 ± 2.439 mmol/L
  ligh density lipoprotein cholesterin (LDL-C) Wk 19: 6.357 ± 4.475 mmol/L
  total cholesterol (TC) Wk 0: 1.77 ± 0.783 mmol/L
  total cholesterol (TC) Wk 19: 10.28 ± 5.82 mmol/L
  total triglyceride (TG) Wk 0: 0.656 ± 0.19 J·mmol/L
serum, all treatment groups vs vehicle control
  HDL-C: significantly high
Three treatment groups, anatomic, pathological and biochemistry examination
  dose escalation effect: no dose escalation effect
Treatment group vs vehicle
  Liver index: lower in treatment group, but there's no statistical difference found
Treatment groups vs vehicle control
  lipid content in aorta: lower in treatment groups than that in vehicle control but there was no statistical significance
